Test results: patent publication US7094423B1, “Methods for preparation of lipid-encapsulated therapeutic agents” (INEX Pharmaceuticals Corp., priority 1999, dated 2006)
Values joined by “and” are separate entries in the source; they are usually repeats but may differ in a detail not shown here. Equal values may be shown once. Blank lines part the entries; values can stand above or below the compound they belong to.

Columns and labels:
Type in all cases: physicochemical
[1] = Final drug/lipid ratio and encapsulation efficiency (E.E.)
Method: The procedure of Example 2 was repeated with changes to various parameters to determine which might be critical to the preparation of fully lipid-encapsulated therapeutic agent particles in accordance with the invention. In these experiments, the total oligonucleotide recovery (yield), the total lipid recovery (yield) and the encapsulation efficiency were considered as indications of the quality of the product and the process. Total oligonucleotide recovery was calculated using the formula:
[formula] Encapsulation Efficiency (E.E.) was calculated using the formula:
(§1) [formula] The percentage of oligo that is encapsulated (i.e., incorporated in bilayers or entrapped in the interior of the lipid particle) was determined with the OliGreen assay described above.

[2] = Trapping efficiency of oligonucleotide in liposomes after anion exchange chromatography
Method: Entrapment procedure. […] At pH 7.5 DODAP becomes charge-neutral and oligonucleotides bound to the external membrane surface are released from their association with the cationic lipid. Unencapsulated oligonucleotides were subsequently removed by anion exchange chromatography on DEAE-sepharose CL-6B columns equilibrated in HBS pH 7.5. When octylglucoside was used in place of ethanol the detergent was added to liposomes (1:1 v/v) to final concentrations ranging from 30–40 mM. All the subsequent steps were performed as described above except for the initial dialysis step against pH 4 citrate buffer, which was extended to 5 hrs. In the following examples, if not otherwise mentioned, DSPC/Chol/PEG-CerC14/DODAP liposomes (20:45:10:25 mol %), c-myc (Seq. ID No. 1), 40% (v/v) ethanol, 300 mM citrate buffer and incubation at 40° C. were used.
Determination of trapping efficiencies: Trapping efficiencies were determined after removal of external oligonucleotides by anion exchange chromatography. Oligonucleotide concentrations were determined by UV-spectroscopy on a Shimadzu UV160U spectrophotometer. The absorbance at 260 nm was measured after solubilization of the samples in chloroform/methanol at a volume ratio of 1:2.1:1 chloroform/methanol/aqueous phase (sample/HBS). If the solution was not completely clear after mixing an additional 50–100 μl of methanol was added. Alternatively, absorbance was read after solubilization of the samples in 100 mM octylglucoside. The antisense concentrations were calculated according to: c [μg/μl]=A260*1 OD260 unit [μg/μl]*dilution factor [μg/μl], where the dilution factor is given by the total assay volume […] divided by the sample volume [μl]. OD260 units were calculated from pairwise extinction coefficients for individual deoxy-nucleotides, which take into account nearest neighbor interactions. 1OD corresponds to 30.97 μg/ml c-myc (Seq. ID. No 1), 33.37 μg/ml h-ICAM-1 (Seq. ID No. 2) and 34 μg/ml EGFR (Seq. ID No. 3). Lipid concentrations were determined by the inorganic phosphorus assay after separation of the lipids from the oligonucleotides by a Bligh and Dyer extraction (Bligh and Dyer, 1959). Briefly, to 250 μl of aqueous phase (sample/HBS) 525 μl methanol and 250 μl chloroform were added to form a clear single phase (aqueous phase/methanol/chlorofrom 1:2.1:1 vol). If the solution was not clear a small amount of methanol was added. Subsequently, 250 μl HBS and an equal volume of chloroform were added. The samples were mixed and centrifuged for 5–10 min at 3000 rpm. […] The chloroform phase was assayed for phospholipid content according to the method of Fiske and Subbarrow (1925). If not otherwise mentioned, trapping efficiencies were expressed as oligonucleotide-to-lipid weight ratios [w/w].

[3] = OliGreen assay: percentage of oligo that is encapsulated; conditions: for Encap Oligo %: Ex. 2 procedure
Method: The Oligreen Assay was used to quantify the amount of oligonucleotide loaded into the vesicles. A fluorescent dye binding assay for quantifying single stranded oligonucleotide in aqueous solutions was established using a Biolumin™ 960 fluorescent plate reader (Molecular Dynamics, Sunnyvale, Calif., USA). Briefly, aliquots of encapsulated oligonucleotide were diluted in HEPES buffered saline (HBS; 20 mM HEPES, 145 mM NaCl, pH 7.5). A 10 μL aliquot of the diluted sample was added to 100 μL of a 1:200 dilution of Oligreen™ reagent, both with and without 0.1% of Triton X-100 detergent. An oligo standard curve was prepared with and without 0.1% Triton X-100 for quantification of encapsulated oligo. Fluorescence of the Oligreen™-antisense complex was measured using excitation and emission wavelengths of 485 nm and 520 nm, respectively. Surface associated antisense was determined by comparing the fluorescence measurements in the absence and presence of detergent.
as §1

[4] = Dynamic light scattering: vesicle size; conditions: for Size [nm]: DSPC/Chol/DODAP/PEG-CerC14 20/45/25/10 mol %, initial oligonucleotide-to-lipid 0.23 mg/mg, number-averaged
Method: Dynamic light scattering. Sizes were determined by dynamic light scattering using a NICOMP 370 particle sizer (Nicomp Particle Sizing Inc., Santa Barbara, Calif.). Throughout the application, number-averaged sizes are presented, which were obtained by a cumulant fit from the experimental correlation functions. The polydispersity is expressed as the half-width at half-height of a monomodal Gaussian size distribution. The viscosity of the ethanol/citrate buffer was determined using an Ubelohde-type viscometer (Cannon 50). […] The zeta potential was determined by electrophoretic light scattering using a Coulter light scattering instrument (DELSA, Coulter Electronics Inc., FL).

[5] = Trapping efficiency of oligonucleotide in liposomes after anion exchange chromatography; conditions: DSPC/Chol/DODAP/PEG-CerC14 liposomes; initial ATP-to-lipid ratio 0.2 mg/mg; 50 mM citrate buffer
[6] = Leakage experiments: ethanol-induced permeabilization of LUVs; conditions: DSPC/Chol/PEG-CerC14/DODAP liposomes, 40° C.
Method: Leakage experiments. Ethanol-induced permeabilization of LUVs was measured at different temperatures and as a function of the size (MW) of the entrapped solute. […] Leakage of calcein entrapped at self-quenching concentrations was followed by monitoring the dequenching of the calcein fluorescence. LUVs were prepared by hydration of a lipid film with an aqueous solution containing 75 mM calcein and 5 mM HEPES adjusted to pH 7.5 by addition of sodium hydroxide, followed by 5 freeze/thaw cycles and extrusion through 2 stacked 100 nm filters (10 passes). In the case of […] extrusion was performed at 60° C. Unentrapped calcein was exchanged against an isoosmotic HBS buffer by anion exchange chromatography on a DEAE Sepharose CL6B column. The liposome stock solution was diluted to a lipid concentration of 3 μM in HBS containing varying amounts of ethanol pre-equilibrated at 25, 40 or 60° C. The fluorescence at 520 nm was measured (excitation wavelength […], long-pass filter at 430 nm) with a Perkin Elmer LS50 Fluorimeter (Perkin Elmer) after 5 min of incubation at the corresponding temperature. […] The FITC/LRh-PE ratio was measured before and after addition of ethanol. FITC and LRh-PE fluorescence were measured at 515 nm and 590 nm with the excitation wavelength set to 485 nm and 560 nm, respectively.

[7] = Ex. 2 procedure, initial drug/lipid ratio 0.1
[8] = Ex. 2 procedure, initial drug/lipid ratio 0.2
[9] = initial EtOH 33%, initial drug/lipid 0.2
[10] = initial EtOH 40%, initial drug/lipid 0.2
[11] = initial EtOH 43%, initial drug/lipid 0.2
[12] = 2.5 mol % PEG-CerC14, 40% ethanol, initial oligonucleotide-to-lipid 0.037 mol/mol, listed as c-myc
[13] = 5 mol % PEG-CerC14, 40% ethanol, initial oligonucleotide-to-lipid 0.037 mol/mol
[14] = 10 mol % PEG-CerC14, 40% ethanol, initial oligonucleotide-to-lipid 0.037 mol/mol, listed as c-myc
[15] = DSPC/Chol/DODAP liposomes (no modified lipid), 0% EtOH [v/v], molar ODN/lipid 0.035, pH 4
[16] = DSPC/Chol/DODAP liposomes (no modified lipid), 20% EtOH [v/v], molar ODN/lipid 0.035, pH 4
[17] = DSPC/Chol/DODAP liposomes (no modified lipid), 30% EtOH [v/v], molar ODN/lipid 0.035, pH 4
[18] = citrate buffer 50 mM, initial drug/lipid 0.1
[19] = citrate buffer 100 mM, initial drug/lipid 0.1
[20] = citrate buffer 200 mM, initial drug/lipid 0.1
[21] = citrate buffer 300 mM, initial drug/lipid 0.1
[22] = incubation temp RT(20–22) °C, 1 hour
[23] = initial EtOH 36%, initial drug/lipid 0.1
[24] = initial EtOH 43%, initial drug/lipid 0.1
[25] = initial EtOH 45%, initial drug/lipid 0.1
[26] = oligo stock 10 mg/ml, initial drug/lipid 0.1
[27] = oligo stock 20 mg/ml, initial drug/lipid 0.1
[28] = oligo stock 30 mg/ml, initial drug/lipid 0.1
[29] = oligo stock 40–50 mg/ml, initial drug/lipid 0.1

Compound: 5′-TAACGTTGAGGGGCAT-3′ (listed as DNA, chemistry not given here) [INX-6295]
E.E. % [1, 7]: 100%
Final Drug/Lipid Ratio [1, 7]: 0.1
Final Drug/Lipid Ratio [1, 8]: 0.17–0.2
E.E. % [1, 9]: 60%
Final Drug/Lipid [1, 9]: 0.12
E.E. % [1, 10]: 75%
Final Drug/Lipid [1, 10]: 0.15
E.E. % [1, 11]: 95%
Final Drug/Lipid [1, 11]: 0.19
% encapsulation [2, 12]: 45% and 45.7%
% encapsulation [2, 13]: 50.9%
% encapsulation ([2]; 10 mol % PEG-CerC14, 25% ethanol, initial oligonucleotide-to-lipid 0.037 mol/mol, listed as c-myc): 5%
% encapsulation [2, 14]: 60% and 56.5%
final antisense-to-lipid ratio ([2]; 10 mol % PEG-CerC14 liposomes, initial antisense-to-lipid weight ratio 0.29): 0.16
% encapsulation [2, 15]: 4.4%
% encapsulation [2, 16]: 20.5%
% encapsulation [2, 17]: 32.5%
% encapsulation ([2]; OGP 30 mM in place of ethanol, DSPC/Chol/DODAP/PEG-CerC14 20/45/25/10 mol %, initial oligonucleotide-to-lipid 0.23 mg/mg): 51%
% encapsulation ([2]; OGP 35 mM in place of ethanol, DSPC/Chol/DODAP/PEG-CerC14 20/45/25/10 mol %, initial oligonucleotide-to-lipid 0.23 mg/mg): 57%
% encapsulation ([2]; OGP 40 mM in place of ethanol, DSPC/Chol/DODAP/PEG-CerC14 20/45/25/10 mol %, initial oligonucleotide-to-lipid 0.23 mg/mg): 55%
oligonucleotide molecules per 100 nm liposome ([2]; at maximum entrapment): approximately 2250
Encap Oligo % ([3]; initial drug/lipid ratio 0.1): ≧90%
Encap Oligo % ([3]; initial drug/lipid ratio 0.2): ≧80%
Encapsulated Oligo % [3, 18]: 94%
Encapsulated Oligo % [3, 19]: 90%
Encapsulated Oligo % [3, 20]: 91%
Encapsulated Oligo % [3, 21]: 92%
Encaps Oligo % ([3]; incubation temp 40 °C, 1 hour): 91%
Encaps Oligo % ([3]; incubation temp 60 °C, 1 hour): 83%
Encaps Oligo % [3, 22]: 90%
Encapsulated Oligo % ([3]; incubation time 0.5 hr at 40° C.): 92%
Encapsulated Oligo % ([3]; incubation time 1 hr at 40° C.): 94%
Encapsulated Oligo % ([3]; incubation time 2 hr at 40° C.): 95%
Encaps Oligo % [3, 9]: 88%
Encaps Oligo % [3, 23]: 85–89%
Encaps Oligo % [3, 10]: 82%
Encaps Oligo % [3, 24]: 84–89%
Encaps Oligo % [3, 11]: 62%
Encaps Oligo % [3, 25]: 90–92%
Encaps Oligo % [3, 26]: 90%
Encaps Oligo % [3, 27]: 88%
Encaps Oligo % [3, 28]: 90%
Encaps Oligo % [3, 29]: 88–94%
Average size [nm] ([4]; 2.5 mol % PEG-CerC14, 25% ethanol, initial oligonucleotide-to-lipid 0.037 mol/mol): 125 ± 35 (108 ± 26) nm
Average size [nm] [4, 12]: 131±40 nm and 131 ± 40 (108 ± 26) nm
Average size [nm] [4, 13]: 126 ± 36 (107 ± 22) nm
Average size [nm] ([4]; 10 mol % PEG-CerC14, 25% ethanol, initial oligonucleotide-to-lipid 0.037 mol/mol): 92 ± 18 (93 ± 18) nm
Average size [nm] [4, 14]: 100±26 nm and 100 ± 26 (93 ± 18) nm
Average size [nm] [4, 15]: 148 ± 56 nm
Average size [nm] [4, 16]: 226 ± 104 nm
Average size [nm] [4, 17]: 470 ± 244 nm
Vesicle Size (nm) [4, 7]: 106 nm
Vesicle Size (nm) [4, 8]: 119 nm
Size [nm] ([4]; OGP 30 mM in place of ethanol): 65 ± 12 nm
Size [nm] ([4]; OGP 35 mM in place of ethanol): 100 ± 22 nm
Size [nm] ([4]; OGP 40 mM in place of ethanol): 145 ± 38 nm
Vesicle Size (nm) [4, 18]: 80 nm
Vesicle Size (nm) [4, 19]: 90 nm
Vesicle Size (nm) [4, 20]: 93 nm
Vesicle Size (nm) [4, 21]: 106 nm
Vesicle Size (nm) ([4]; incubation temp 40 °C, 1 hour): 109 nm
Vesicle Size (nm) ([4]; incubation temp 60 °C, 1 hour): 140 nm
Vesicle Size (nm) [4, 22]: 114 nm
Vesicle Size (nm) [4, 9]: 115 nm
Vesicle Size (nm) [4, 23]: 110 nm
Vesicle Size (nm) [4, 10]: 114 nm
Vesicle Size (nm) [4, 24]: 116 nm
Vesicle Size (nm) [4, 11]: 105 nm
Vesicle Size (nm) [4, 25]: 108 nm
size and polydispersity of liposomes ([4]; initial ODN-to-lipid weight ratio of 0.2): 110±30 nm
Vesicle Size (nm) [4, 26]: 106 nm
Vesicle Size (nm) [4, 27]: 112 nm
Vesicle Size (nm) [4, 28]: 110 nm
Vesicle Size (nm) [4, 29]: 106 nm

Compound: Nc1ncnc2c1ncn2[C@@H]1O[C@H](COP(=O)(O)OP(=O)(O)OP(=O)(O)O)[C@@H](O)[C@H]1O [ATP]
fraction entrapped [5]: less than 10%

ethanol concentration at which leakage reaches a maximum [6]: around 40 % ethanol
ethanol concentration at which leakage starts [6]: ≤ 30 % ethanol
Compound: O=C(O)CN(CC(=O)O)Cc1cc2c(cc1O)Oc1cc(O)c(CN(CC(=O)O)CC(=O)O)cc1C21OC(=O)c2ccccc21 [calcein]
